Experimental data reported in a melting point compilation (Tetko et al.; mined from patent text by program, amines drawn as free bases though some values may be those of a salt).

| Compound | melting point [°C] |
| --- | --- |
| Nc1nc2c(s1)CCN(CC=Cc1ccccc1Br)CC2 | 103 to 106 |
| N#CC(=O)c1ccc(Cl)c(Cl)c1 | 70 to 71 |
| CCOc1nc2ccccc2nc1NC(=O)N1CCN(c2cc(Cl)cc(Cl)c2)CC1 | 157 to 159 |
| COc1ccc(CCOc2c(-c3ccc(S(C)(=O)=O)cc3)cnn(CC(F)(F)F)c2=O)cc1OC | 133 to 134 |
| CSc1ccc(N2CC=C(c3cccc(C)c3)CC2)nn1 | 130 |
| O=S(=O)(Nc1cccc(CCOCc2ccc(-c3cccc(Cl)c3)cc2)c1)C(F)(F)F | 105 to 107 |
| O=C1CCCn2c(=O)[nH]c3cccc1c32 | 235 |
| Cc1ccc(Cc2cnc(NCCCNc3cccc(C)n3)[nH]c2=O)cn1 | 113 to 120 |
| OCc1c(F)ccc(-n2cccc2)c1F | < 60 |
| CC(=O)N[C@H](COC1CCCCO1)C(=O)NCCO[N+](=O)[O-] (stereo partly specified) | 93 to 95 |
| COC(=O)c1sc([N+](=O)[O-])cc1N=NN(C)C | 128 to 130 |
| CCCOc1ccccc1-c1nc2nc(NCC(C)O)ncc2c(=O)[nH]1 (stereo unspecified) | 212 to 214 |
| CN(C)c1ccccc1CC(=O)N1C[C@H]2[C@@H](C1)C(c1ccccc1)(c1ccccc1)CC[C@@H]2O | 160 |
| CCN1CCCC(NC(=O)N2CCN(c3ccccc3)CC2)C1 (stereo unspecified) | 100 to 103 |
| Cc1c(C(=O)c2cccc(C(F)(F)F)c2F)c2ccc(Cl)c(Cl)c2n1CCCNS(C)(=O)=O | 181 |
| Cc1ccc(C=CC(=O)C(CCC(=O)O)(Cc2ccccc2Cl)c2ccccc2)cc1 (stereo unspecified) | 120 to 147 |
| CCCCc1nc(C(C)(O)CC)c(C#N)[nH]1 (stereo unspecified) | 139 to 142 |
| O=C1C(=CO)C(c2ccc(Cl)cc2)c2ccc(Cl)cc21 (stereo unspecified) | 122 to 124 |
| O=C(CCc1ccc(Br)cc1)Cn1ccnc1 | 71 to 73 |
| CSc1ccc(-c2nnc(Oc3ccc(F)cc3F)cc2-c2ccc(Cl)cc2)cc1 | 163 to 164 |
| CCOc1nn(C(=O)NS(=O)(=O)c2c(C)cccc2OC(C)C)c(=O)n1C | 155 |
| COc1ccc(-c2nnc(O)nc2-c2ccc(OC)cc2)cc1 | 238 to 242 |
| CCCc1c(C(=O)C(C)C)c2ccc(C(=O)O)cc2n1Cc1ccccc1OC | 190 to 191 |
| COc1cc2c(c(C(C)C)c1OC)CC(C)C(Br)=C2 (stereo unspecified) | 71 to 72 |
| C[C@H](OCc1cc2cc(Cl)ccc2n1S(=O)(=O)c1ccc2ncsc2c1)C(=O)O | 82 |
| COC(=S)c1ccncc1Cc1ccc(OC)cc1 | 99 to 100 |

| Compound | melting point [°C] |
| --- | --- |
| OCC1CN(C(c2ccccc2)c2ccccc2)C1 | 114 to 116 |
| Cc1cc(C)c(Nc2nc(C)ccc2S(=O)(=O)c2ccc(OCc3ccc(F)cc3)cc2)c(C)c1 | 178 to 180 |
| Cc1c(Cc2cc(Cl)cc(Cl)c2)c(C(=O)O)nn1CCO | 241 to 242 |
| Cn1cc(C(=O)CCN2CCCCC2)cc1C(=O)c1cccc2ccccc12 | 141 to 143 |
| CCCN(C1=C(O)CC(C2CCCC2)(C2CCCC2)OC1=O)c1cccc(N)c1 | 173 to 175 |
| CC(C)(C)CC1NC(C(=O)NCC2CCC(O)CC2)C(c2cccc(Cl)c2F)C12C(=O)Nc1cc(Cl)ccc12 (stereo unspecified) | 192 |
| Cn1cc(Br)nc(Nc2cccnc2)c1=O | > 250 |
| CC(c1ccc(CCNC(=O)c2ccc(Br)cc2)cc1)N1CCCC1 (stereo unspecified) | 124 to 126 |
| COC(=O)C(C(=O)OC)C(Cc1c([N+](=O)[O-])cccc1C(F)(F)F)c1ccc(OC)cc1 (stereo unspecified) | 117 to 119 |
| CCOC(=O)c1ccc(-c2nc3ccc(C)cn3c2CO)cc1 | 157 to 159 |
| CCCCOc1cccc(C(=O)C=Cc2ccc(OC)cc2OC)c1 | 80.4 to 81.3 |
| COc1ccc(OCc2ccccc2)cc1C=O | 99 to 100 |
| Cn1ccc(CON2C(=O)c3ccccc3C2=O)n1 | 122 to 124 |
| O=c1cc(-c2ccoc2)c2ccc(S)cc2o1 | 167 to 170 |
| O=C(O)Cc1ccc2c(c1)-c1ccccc1C2 | 166 to 168 |
| CCC(CC)Oc1nc(C)nc(Oc2c(C)cc(C)cc2C)c1C | 93.5 to 95.5 |
| Cc1cccc2c1CN(S(C)(=O)=O)CCS2 | 128 to 130 |
| Cc1nc(N)c2nc(C)n(CCCNC(=O)C(C)C)c2c1C | 178 to 179 |
| CCCNC(C)=C1C(=O)OC(=O)C(C(=O)C=Cc2cccc(OC)c2OC)=C1O | 180 to 185 |
| N#Cc1ccc(-c2cn(-c3ccc(C#N)cc3)c(SCc3ccccn3)n2)cc1 | 164 to 170 |
| CCCCCCCCCCCCCCOc1ccc(CC(=O)OC)cc1F | 38 to 40 |
| S=C1NCC2(CC2)CN1 | 220 to 222 |
| COc1cc2c(cc1OCc1ccccc1)CCN(Cc1cc(OC)c(OC)c(OC)c1)C2 | 144 to 145 |
| Cc1c(N2C[C@H](CF)[C@H](N)C2)c(F)cc2c(=O)c(C(=O)O)cn(C3CC3)c12 | 160 to 165 |
| CCOC(=O)c1c(C(F)(F)F)nc2c(C(F)(F)F)cccc2c1O | 68 |
| O=C1Nc2ccncc2N2CCNCC12 (stereo unspecified) | 303 to 306 |

| Compound | melting point [°C] |
| --- | --- |
| O=C1C(=O)N2CCOc3cc([N+](=O)[O-])cc1c32 | 230 to 232 |
| Oc1ccc2c(c1O)OCC(c1cccc(Cl)c1)C2 (stereo unspecified) | 99 to 101 |
| CC(=O)OCCn1c([N+](=O)[O-])cnc1C=O | 203 to 205 |
| C=CCc1ccc2oc(C(=O)OCC)cc(=O)c2c1O | 99 to 100 |
| C[C@H](Cn1ncnn1)n1cnc2cc3c(=O)n(C4CC4)cnc3cc2c1=O | 221 to 223 |
| CN1Cc2cccc(SCc3ccccc3)c2S1(=O)=O | 119 to 122 |
| N#Cc1ccc(Oc2ccc(CC(=O)O)cc2)nc1 | 148 to 151 |
| Cc1cc(OCCN2CCc3ccc(NS(C)(=O)=O)cc3CC2)ccc1NS(C)(=O)=O | 173 to 174 |
| Cc1cc(-n2ccc(CCc3ccccc3)cc2=O)sc1C(=O)NCc1ccccc1 | 145 to 146 |
| COC(=O)c1ccccc1S(=O)(=O)NC(=Nc1nc(C)cc(OC)n1)SC | 143 to 144 |
| CC(C)(C)OC(=O)N(C(=O)OC(C)(C)C)c1cnc(-c2cncc(F)c2)s1 | 94 to 96 |
| O=C1CCc2c(Br)cccc2C1 | 62 |
| O=C=Nc1ccc(OCC(=O)OCCOC(=O)COc2ccc(N=C=O)cc2)cc1 | 96 to 98 |
| COC(=O)c1ccc(C=O)c2ncccc12 | 128 |
| COCC(O)c1cccc(S(N)(=O)=O)c1 (stereo unspecified) | 109 |
| CS(=O)(=O)c1ccccc1-c1ccc(C(=O)O)cc1 | 273 to 275 |
| Cc1ccc2c(-c3ccc(F)cc3)nc(=O)n(C(C)C)c2c1 | 172 to 174 |
| COc1cc(Cc2cnc(N)nc2N)cc(OC)c1Cl | 218 |
| Cn1c(=O)c(-c2c(Cl)cccc2Cl)cc2cnc(Nc3ccccc3)nc21 | 247 to 249 |
| CCOc1nc2c(cnn2CC)nc1C#N | 73 to 74 |
| NC(=O)Cc1c(N)cc(Br)cc1OCc1ccccc1 | 185 |
| Cc1cccc(N2CCN(c3ccnc4sc(C(N)=O)c(N)c34)CC2C)c1 (stereo unspecified) | 215 to 217 |
| CCCCNc1cc(Cl)nnc1NN | 170 to 172 |
| NNc1ccc2c(=O)[nH]ccc2c1 | 270 |
